Results published in ChEMBL document CHEMBL4229334, “Fluoroquinolone derivatives and their anti-tubercular activities” (Eur J Med Chem, 2018).
In brackets after ≈: the same amount, converted by molar mass.

Columns and labels:
[1] = test system: Mycobacterium avium; assay: Antitubercular activity against Mycobacterium avium after 14 days by two fold agar dilution method; type: functional; settings: 336 h
[2] = test system: Mycobacterium intracellulare; assay: Antitubercular activity against Mycobacterium intracellulare after 14 days by two fold agar dilution method; type: functional; settings: 336 h
[3] = test system: Mycobacterium tuberculosis; assay: Antitubercular activity against rifampicin-sensitive Mycobacterium tuberculosis after 21 days by two fold agar dilution method; type: functional; settings: 504 h
[4] = test system: Mycobacterium avium; assay: Potency index, ratio of MIC for LVFX to MIC for test compound for antitubercular activity against Mycobacterium avium after 14 days by two fold agar dilution method; type: functional
[5] = test system: Mycobacterium avium; assay: Potency index, ratio of MIC for GTFX to MIC for test compound for antitubercular activity against Mycobacterium avium after 14 days by two fold agar dilution method; type: functional
[6] = test system: Mycobacterium avium; assay: Potency index, ratio of MIC for rifampicin to MIC for test compound for antitubercular activity against Mycobacterium avium after 14 days by two fold agar dilution method; type: functional
[7] = test system: Mycobacterium avium; assay: Potency index, ratio of MIC for isoniazid to MIC for test compound for antitubercular activity against Mycobacterium avium after 14 days by two fold agar dilution method; type: functional
[8] = test system: Mycobacterium intracellulare; assay: Potency index, ratio of MIC for LVFX to MIC for test compound for antitubercular activity against Mycobacterium intracellulare after 14 days by two fold agar dilution method; type: functional
[9] = test system: Mycobacterium intracellulare; assay: Potency index, ratio of MIC for GTFX to MIC for test compound for antitubercular activity against Mycobacterium intracellulare after 14 days by two fold agar dilution method; type: functional
[10] = test system: Mycobacterium intracellulare; assay: Potency index, ratio of MIC for isoniazid to MIC for test compound for antitubercular activity against Mycobacterium intracellulare after 14 days by two fold agar dilution method; type: functional
[11] = test system: Mycobacterium tuberculosis; assay: Potency index, ratio of MIC for LVFX to MIC for test compound for antitubercular activity against rifampicin-sensitive Mycobacterium tuberculosis after 21 days by two fold agar dilution method; type: functional
[12] = test system: Mycobacterium tuberculosis; assay: Potency index, ratio of MIC for rifampicin to MIC for test compound for antitubercular activity against rifampicin-sensitive Mycobacterium tuberculosis after 21 days by two fold agar dilution method; type: functional
[13] = test system: Mycobacterium tuberculosis; assay: Potency index, ratio of MIC for isoniazid to MIC for test compound for antitubercular activity against rifampicin-sensitive Mycobacterium tuberculosis after 21 days by two fold agar dilution method; type: functional
[14] = test system: Mycobacterium intracellulare; assay: Antibacterial activity against Mycobacterium intracellulare after 7 days by two fold dilution assay; type: functional; settings: 168 h
[15] = test system: Mycobacterium xenopi; assay: Antibacterial activity against Mycobacterium xenopi after 7 days by two fold dilution assay; type: functional; settings: 168 h
[16] = test system: Mycobacteroides chelonae; assay: Antibacterial activity against Mycobacterium chelonae after 7 days by two fold dilution assay; type: functional; settings: 168 h
[17] = test system: Mycolicibacterium smegmatis; assay: Antibacterial activity against Mycobacterium smegmatis after 7 days by two fold dilution assay; type: functional; settings: 168 h
[18] = test system: Mycobacterium avium; assay: Antitubercular activity against Mycobacterium avium; type: functional
[19] = test system: Mycolicibacterium fortuitum; assay: Antitubercular activity against Mycobacterium fortuitum ATCC 6841 by NCCLS method; type: functional
[20] = test system: Mycolicibacterium smegmatis; assay: Antibacterial activity against Mycobacterium smegmatis by NCCLS method; type: functional
[21] = test system: Mycolicibacterium fortuitum; assay: Potency index, ratio of MIC for SPFX to MIC for test compound for antitubercular activity against Mycobacterium fortuitum ATCC 6841 by NCCLS method; type: functional
[22] = test system: Mycolicibacterium smegmatis; assay: Potency index, ratio of MIC for SPFX to MIC for test compound for antibacterial activity against Mycobacterium smegmatis by NCCLS method; type: functional
[23] = test system: Mycolicibacterium smegmatis; assay: Antitubercular activity against Mycobacterium smegmatis CMCC 93202 after 72 hrs; type: functional; settings: CMCC 93202, 72 h
[24] = test system: Mycolicibacterium smegmatis; assay: Potency index, ratio of MIC for CPFX to MIC for test compound for antitubercular activity against Mycobacterium smegmatis CMCC 93202 after 72 hrs; type: functional
[25] = test system: Mycolicibacterium smegmatis; assay: Potency index, ratio of MIC for 8-OMe CPFX to MIC for test compound for antitubercular activity against Mycobacterium smegmatis CMCC 93202 after 72 hrs; type: functional
[26] = test system: Mycolicibacterium smegmatis; assay: Potency index, ratio of MIC for MXFX to MIC for test compound for antitubercular activity against Mycobacterium smegmatis CMCC 93202 after 72 hrs; type: functional
[27] = test system: Mycolicibacterium smegmatis; assay: Potency index, ratio of MIC for rifampicin to MIC for test compound for antitubercular activity against Mycobacterium smegmatis CMCC 93202 after 72 hrs; type: functional
[28] = test system: Mycolicibacterium smegmatis; assay: Antitubercular activity against Mycobacterium smegmatis after 30 to 32 hrs; type: functional
[29] = test system: Mycobacterium tuberculosis; assay: Antitubercular activity against non-replicating Mycobacterium tuberculosis H37Rv after 10 days by low oxygen recovery assay; type: functional; settings: 240 h
[30] = test system: Mycobacterium tuberculosis; assay: Antitubercular activity against replicating Mycobacterium tuberculosis H37Rv by Alamar Blue assay; type: functional
[31] = test system: Mycobacterium tuberculosis; assay: Potency index, ratio of MIC for MXFX to MIC for test compound for antitubercular activity against non-replicating Mycobacterium tuberculosis H37Rv after 10 days by low oxygen recovery assay; type: functional
[32] = Cytotoxicity against African green monkey Vero cells after 72 hrs by MTT assay; type: cell-based; settings: chlorocebus sabaeus
[33] = test system: Mycobacterium tuberculosis; assay: Antitubercular activity against Mycobacterium tuberculosis H37Rv ATCC 27294 assessed as growth inhibition at 6.25 ug/ml by broth dilution assay relative to control; type: functional; settings: read-out: GI
[34] = test system: Mycobacterium tuberculosis; assay: Antitubercular activity against Mycobacterium tuberculosis H37Rv ATCC 27294 by Alamar Blue assay; type: functional
[35] = test system: Mycobacterium tuberculosis; assay: Antitubercular activity against Mycobacterium tuberculosis H37Rv by serial dilution assay; type: functional
[36] = test system: Mycobacterium tuberculosis; assay: Potency index, ratio of MIC for perfloxacin to MIC for test compound for antitubercular activity against Mycobacterium tuberculosis H37Rv by serial dilution assay; type: functional
[37] = test system: Mycobacterium tuberculosis; assay: Antitubercular activity against Mycobacterium tuberculosis H37Rv after 21 days by broth dilution assay; type: functional; settings: 504 h
[38] = test system: Staphylococcus aureus; assay: Antibacterial activity against Staphylococcus aureus after 18 hrs by broth microdilution assay; type: functional
[39] = test system: Corynebacterium; assay: Antibacterial activity against Corynebacterium ATCC-25365 after 18 hrs by broth microdilution assay; type: functional; settings: ATCC-25365, 18 h
[40] = test system: Corynebacterium; assay: Antibacterial activity against Corynebacterium ATCC-29355 after 18 hrs by broth microdilution assay; type: functional; settings: ATCC-29355, 18 h
[41] = Cytotoxicity against African green monkey Vero cells after 96 hrs by MTT assay; type: cell-based; settings: chlorocebus sabaeus
[42] = Selectivity index, ratio of IC50 for African green monkey Vero cells to MIC for Mycobacterium tuberculosis H37Rv; type: toxicity
[43] = test system: Mycobacterium tuberculosis; assay: Antibacterial activity against Mycobacterium tuberculosis H37Rv after 7 days by two fold dilution assay; type: functional; settings: 168 h

C[C@H]1COc2c(N3C[C@H]4CCCN[C@H]4C3)c(F)cc3c(=O)c(C(=O)O)cn1c23
MIC [1]: 0.2 to 1.7 µg/mL (≈ 0.516 to 4.39 µM) | MIC [2]: 0.2 to 1.7 µg/mL (≈ 0.516 to 4.39 µM) | MIC [3]: 0.2 to 1.7 µg/mL (≈ 0.516 to 4.39 µM) | Ratio [4]: 3.2 - 64.2 | Ratio [5]: 3.2 - 64.2 | Ratio [6]: 3.2 - 64.2 | Ratio [7]: 3.2 - 64.2 | Ratio [8]: 1.9 - 8.2 | Ratio [9]: 1.9 - 8.2 | Ratio [10]: 1.9 - 8.2 | Ratio [11]: >=6.5 - 165 | Ratio [12]: >=6.5 - 165 | Ratio [13]: >=6.5 - 165

CCn1cc(C(=O)N/N=C2\C(=O)N(Cc3ccccc3)c3ccccc32)c(=O)c2ccc(C)nc21
MIC [14]: 0.625 µg/mL (≈ 1.34 µM) | MIC [15]: 0.625 µg/mL (≈ 1.34 µM) | MIC [16]: 0.625 µg/mL (≈ 1.34 µM) | MIC [17]: 0.625 µg/mL (≈ 1.34 µM)

O=C(O)c1cn(-c2ccc(O)cc2)c2cc(N3CCNCC3)c(F)cc2c1=O
MIC [18]: 6.25 µg/mL (≈ 16.3 µM)

CC1(CN)CCN(c2cc3c(cc2F)c(=O)c(C(=O)O)cn3C2CC2)C1 (stereo not drawn)
MIC [19]: ≤ 0.03 µg/mL | MIC [20]: 0.06 µg/mL (≈ 0.167 µM) | Ratio [21]: >=2 | Ratio [22]: >=2

COc1ccc2cc(C(=O)CN3CCN(c4c(F)cc5c(=O)c(C(=O)O)cn(C6CC6)c5c4OC)CC3)c(=O)oc2c1
MIC [23]: 0.25 µg/mL (≈ 0.433 µM) | Ratio [24]: 2 - 8 | Ratio [25]: 2 - 8 | Ratio [26]: 2 - 8 | Ratio [27]: 2 - 8

CCn1cc(C(=O)N/N=C/c2c(Cl)cccc2Cl)c(=O)c2cc(F)c(N3CCN(C)CC3)cc21
MIC [28]: 27 µM (≈ 13.6 µg/mL)

Cc1c(N2CCC(=CO)CC2)c(F)cc2c(=O)c(C(=O)O)cn(C3CC3)c12
MIC [29]: 2.95 µg/mL (≈ 7.92 µM) | MIC [30]: 0.1 µg/mL (≈ 0.269 µM) | Ratio [31]: 3.1

CC1COc2c(N3CCN(S(=O)(=O)c4ccc([N+](=O)[O-])cc4)CC3)c(F)cc3c(=O)c(C(=O)O)cn1c23 (stereo not drawn)
CC50 at 72 h [32]: > 33 µg/mL | inhibition of growth at 6.25 µg/mL [33]: 99% | MIC [34]: 2.23 µg/mL (≈ 4.19 µM)

CCn1cc(C(=O)O)c(=O)c2cc(F)c(OCCOCCOCCOCCOCCOc3cc4c(cc3F)c(=O)c(C(=O)O)cn4CC)cc21
MIC [35]: 0.8 µg/mL (≈ 1.14 µM) | Ratio [36]: 5

Cn1cc(C(=O)O)c(=O)c2cc(F)c(N3CCN(c4nnc(SCC(=O)c5ccc([N+](=O)[O-])cc5)s4)CC3)cc21
MIC [37]: 0.5 µg/mL (≈ 0.855 µM) | MIC [38]: 0.5 to 1 µg/mL (≈ 0.855 to 1.71 µM) | MIC [39]: 0.5 to 1 µg/mL (≈ 0.855 to 1.71 µM) | MIC [40]: 0.5 to 1 µg/mL (≈ 0.855 to 1.71 µM) | CC50 at 96 h [41]: > 6.1 µg/mL | selectivity ratio [42]: > 12.2

CCn1cc(C(=O)N/N=C/c2cccc(O)c2)c(=O)c2cc(F)c(N3CCN(C)CC3)cc21
MIC [28]: 27.2 µM (≈ 12.3 µg/mL)

O=C(O)c1cn(C2CC2)c2cc(N3CCNCC3)c(F)cc2c1=O [CIPROFLOXACIN]
MIC [38]: 1 to 2 µg/mL (≈ 3.02 to 6.04 µM) | MIC [39]: 1 to 2 µg/mL (≈ 3.02 to 6.04 µM) | MIC [40]: 1 to 2 µg/mL (≈ 3.02 to 6.04 µM)

NNC(=O)c1ccncc1 [ISONIAZID]
MIC [14]: 12.5 µg/mL (≈ 91.1 µM) | MIC [15]: 12.5 µg/mL (≈ 91.1 µM) | MIC [16]: 12.5 µg/mL (≈ 91.1 µM) | MIC [17]: 12.5 µg/mL (≈ 91.1 µM) | MIC [43]: 0.05 µg/mL (≈ 0.365 µM) | CC50 at 72 h [32]: 32 µg/mL (≈ 233 µM) | MIC [37]: 1.5 µg/mL (≈ 10.9 µM)

COc1c(N2C[C@@H]3CCCN[C@@H]3C2)c(F)cc2c(=O)c(C(=O)O)cn(C3CC3)c12 [MOXIFLOXACIN]
MIC [29]: 9.19 µg/mL (≈ 22.9 µM) | MIC [30]: 0.1 µg/mL (≈ 0.249 µM)

CC1COc2c(N3CCN(C)CC3)c(F)cc3c(=O)c(C(=O)O)cn1c23 (stereo not drawn) [OFLOXACIN]
inhibition of growth at 6.25 µg/mL [33]: 62 to 96%

CCn1cc(C(=O)O)c(=O)c2cc(F)c(N3CCN(C)CC3)cc21 [PEFLOXACIN]
MIC [35]: 4 µg/mL (≈ 12 µM)

CO[C@H]1/C=C/O[C@@]2(C)Oc3c(C)c(O)c4c(O)c(c(/C=N/N5CCN(C)CC5)c(O)c4c3C2=O)NC(=O)/C(C)=C\C=C\[C@H](C)[C@H](O)[C@@H](C)[C@@H](O)[C@@H](C)[C@H](OC(C)=O)[C@@H]1C [RIFAMPIN]
MIC [43]: 0.39 µg/mL (≈ 0.474 µM) | CC50 at 72 h [32]: 7.8 µg/mL (≈ 9.48 µM) | MIC [37]: 1 µg/mL (≈ 1.22 µM)

O=C(O)c1cn(-c2ccc(F)cc2)c2cc(N3CCNCC3)c(F)cc2c1=O [SARAFLOXACIN]
MIC [18]: 6.25 µg/mL (≈ 16.2 µM)

C[C@@H]1CN(c2c(F)c(N)c3c(=O)c(C(=O)O)cn(C4CC4)c3c2F)C[C@H](C)N1 [SPARFLOXACIN]
MIC [19]: 0.06 µg/mL (≈ 0.153 µM) | MIC [20]: 0.13 µg/mL (≈ 0.331 µM)
